Measured values as given in ChEMBL document CHEMBL2331421, “Amino acid derived quinazolines as Rock/PKA inhibitors” (Bioorg Med Chem Lett, 2013).

Columns and labels:
[1] = target: Mitogen-activated protein kinase 8 (Homo sapiens, UniProt P45983); experiment: Inhibition of JNK1 (unknown origin)
[2] = target: Mitogen-activated protein kinase 9 (Homo sapiens, UniProt P45984); experiment: Inhibition of JNK2 (unknown origin)
[3] = Inhibition of PKA (unknown origin); parameters: species or system Homo sapiens
[4] = target: Rho-associated protein kinase 2 (Homo sapiens, UniProt O75116); experiment: Inhibition of human recombinant 6-His-tagged ROCK2 expressed in baculovirus-infected Sf9 cells using LCB-AKRRRLSSLRA-NH2 as substrate after 25 mins by TR-FRET assay
[5] = Half life in human liver microsomes; format: ADME, Microsome
[6] = target: Serine/threonine-protein kinase MRCK alpha (Homo sapiens, UniProt Q5VT25); experiment: Inhibition of MRCKalpha (unknown origin)
[7] = target: Mitogen-activated protein kinase 10 (Homo sapiens, UniProt P53779); experiment: Inhibition of JNK3 (unknown origin)
[8] = target: Rho-associated protein kinase 1 (Homo sapiens, UniProt Q13464); experiment: Inhibition of ROCK1 (unknown origin)
[9] = target: CYP2D6 (Homo sapiens, UniProt P10635); experiment: Inhibition of CYP2D6 (unknown origin) at 10 uM relative to control; format: ADME
[10] = target: CYP3A4 (Homo sapiens, UniProt P08684); experiment: Inhibition of CYP3A4 (unknown origin) at 10 uM relative to control; format: ADME
[11] = target: CYP2C9 (Homo sapiens, UniProt P11712); experiment: Inhibition of CYP2C9 (unknown origin) at 10 uM relative to control; format: ADME
[12] = Inhibition of ROCK in rat A7r5 cells assessed as inhibition of myosin light chain bisphosphorylation by Western blot analysis; format: cell-based
[13] = target: Mitogen-activated protein kinase 14 (Homo sapiens, UniProt Q16539); experiment: Inhibition of p38alpha (unknown origin)
[14] = target: T1, CYP1A2 (Homo sapiens, UniProt P05177); experiment: Inhibition of CYP1A2 (unknown origin) at 10 uM relative to control; format: ADME
T1 sequence (P05177 whole entry): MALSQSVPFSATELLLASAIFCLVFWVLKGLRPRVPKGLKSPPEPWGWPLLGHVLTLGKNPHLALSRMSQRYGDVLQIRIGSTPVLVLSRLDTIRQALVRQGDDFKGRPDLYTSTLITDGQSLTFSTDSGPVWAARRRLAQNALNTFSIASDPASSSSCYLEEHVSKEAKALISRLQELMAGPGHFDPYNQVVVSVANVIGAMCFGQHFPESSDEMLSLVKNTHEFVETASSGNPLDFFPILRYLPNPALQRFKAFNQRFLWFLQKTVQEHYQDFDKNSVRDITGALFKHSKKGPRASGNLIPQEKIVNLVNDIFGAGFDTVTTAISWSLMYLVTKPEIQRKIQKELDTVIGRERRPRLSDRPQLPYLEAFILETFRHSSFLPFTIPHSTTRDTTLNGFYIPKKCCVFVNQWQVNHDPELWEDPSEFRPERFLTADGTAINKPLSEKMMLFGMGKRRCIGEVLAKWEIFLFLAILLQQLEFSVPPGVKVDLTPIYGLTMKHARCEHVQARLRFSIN

Rho-associated protein kinase 1, sequence (Q13464 whole entry): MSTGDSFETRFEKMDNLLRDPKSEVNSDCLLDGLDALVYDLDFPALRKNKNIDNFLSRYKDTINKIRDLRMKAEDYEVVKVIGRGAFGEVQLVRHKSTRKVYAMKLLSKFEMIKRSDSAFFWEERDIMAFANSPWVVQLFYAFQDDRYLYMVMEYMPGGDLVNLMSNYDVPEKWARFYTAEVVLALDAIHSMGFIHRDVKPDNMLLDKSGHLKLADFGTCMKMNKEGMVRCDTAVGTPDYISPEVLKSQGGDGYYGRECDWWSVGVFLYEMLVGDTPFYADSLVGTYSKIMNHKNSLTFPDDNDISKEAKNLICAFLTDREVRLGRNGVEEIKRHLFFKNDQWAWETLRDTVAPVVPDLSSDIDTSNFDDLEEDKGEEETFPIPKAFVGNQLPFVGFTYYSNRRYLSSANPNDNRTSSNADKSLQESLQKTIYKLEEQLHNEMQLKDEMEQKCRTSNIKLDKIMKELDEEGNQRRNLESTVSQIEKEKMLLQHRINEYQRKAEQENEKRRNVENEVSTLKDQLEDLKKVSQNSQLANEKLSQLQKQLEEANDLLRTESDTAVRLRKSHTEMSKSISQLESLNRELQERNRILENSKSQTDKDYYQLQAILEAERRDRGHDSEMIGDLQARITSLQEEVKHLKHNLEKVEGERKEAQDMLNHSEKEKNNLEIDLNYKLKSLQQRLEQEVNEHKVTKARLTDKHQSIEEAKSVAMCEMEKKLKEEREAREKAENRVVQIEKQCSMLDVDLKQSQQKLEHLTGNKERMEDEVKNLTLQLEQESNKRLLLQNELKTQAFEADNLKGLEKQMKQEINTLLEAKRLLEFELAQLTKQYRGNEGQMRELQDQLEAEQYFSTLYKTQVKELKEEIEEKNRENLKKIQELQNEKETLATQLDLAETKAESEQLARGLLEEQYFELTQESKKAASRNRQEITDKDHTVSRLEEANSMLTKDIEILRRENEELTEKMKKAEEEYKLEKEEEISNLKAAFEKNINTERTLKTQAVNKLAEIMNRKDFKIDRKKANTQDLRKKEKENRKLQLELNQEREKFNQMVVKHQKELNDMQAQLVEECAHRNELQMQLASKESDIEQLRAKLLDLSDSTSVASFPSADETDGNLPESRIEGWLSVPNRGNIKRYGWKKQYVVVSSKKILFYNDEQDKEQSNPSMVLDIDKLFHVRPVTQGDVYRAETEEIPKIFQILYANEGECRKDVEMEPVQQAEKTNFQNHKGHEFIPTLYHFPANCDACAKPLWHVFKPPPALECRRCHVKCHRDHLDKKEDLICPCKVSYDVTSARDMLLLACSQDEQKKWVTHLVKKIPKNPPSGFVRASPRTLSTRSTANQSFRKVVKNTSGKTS
Mitogen-activated protein kinase 10, sequence (P53779 whole entry): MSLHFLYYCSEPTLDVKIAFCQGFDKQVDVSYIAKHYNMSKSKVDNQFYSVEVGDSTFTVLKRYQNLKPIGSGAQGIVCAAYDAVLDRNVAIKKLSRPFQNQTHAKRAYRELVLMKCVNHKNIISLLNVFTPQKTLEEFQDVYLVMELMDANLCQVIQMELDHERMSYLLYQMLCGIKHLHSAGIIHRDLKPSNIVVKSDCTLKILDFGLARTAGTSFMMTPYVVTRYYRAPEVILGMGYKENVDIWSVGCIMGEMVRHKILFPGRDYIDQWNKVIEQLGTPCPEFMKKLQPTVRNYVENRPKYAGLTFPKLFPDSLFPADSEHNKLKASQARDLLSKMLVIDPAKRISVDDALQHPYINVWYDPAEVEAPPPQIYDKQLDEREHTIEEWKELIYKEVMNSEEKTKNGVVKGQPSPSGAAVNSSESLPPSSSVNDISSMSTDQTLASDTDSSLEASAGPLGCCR
Mitogen-activated protein kinase 8, sequence (P45983 whole entry): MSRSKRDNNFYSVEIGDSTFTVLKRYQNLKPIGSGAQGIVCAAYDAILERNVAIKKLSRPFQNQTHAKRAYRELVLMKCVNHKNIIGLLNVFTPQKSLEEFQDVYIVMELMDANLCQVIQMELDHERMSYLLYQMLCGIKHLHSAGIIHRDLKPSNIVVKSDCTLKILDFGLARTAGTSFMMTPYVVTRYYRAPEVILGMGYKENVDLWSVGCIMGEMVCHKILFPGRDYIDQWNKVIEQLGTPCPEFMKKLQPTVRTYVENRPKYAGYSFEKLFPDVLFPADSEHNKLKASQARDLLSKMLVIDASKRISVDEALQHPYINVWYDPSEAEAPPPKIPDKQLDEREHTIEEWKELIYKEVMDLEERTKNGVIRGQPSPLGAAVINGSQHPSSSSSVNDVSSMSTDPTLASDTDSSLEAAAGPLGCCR
Serine/threonine-protein kinase MRCK alpha, sequence (Q5VT25 whole entry): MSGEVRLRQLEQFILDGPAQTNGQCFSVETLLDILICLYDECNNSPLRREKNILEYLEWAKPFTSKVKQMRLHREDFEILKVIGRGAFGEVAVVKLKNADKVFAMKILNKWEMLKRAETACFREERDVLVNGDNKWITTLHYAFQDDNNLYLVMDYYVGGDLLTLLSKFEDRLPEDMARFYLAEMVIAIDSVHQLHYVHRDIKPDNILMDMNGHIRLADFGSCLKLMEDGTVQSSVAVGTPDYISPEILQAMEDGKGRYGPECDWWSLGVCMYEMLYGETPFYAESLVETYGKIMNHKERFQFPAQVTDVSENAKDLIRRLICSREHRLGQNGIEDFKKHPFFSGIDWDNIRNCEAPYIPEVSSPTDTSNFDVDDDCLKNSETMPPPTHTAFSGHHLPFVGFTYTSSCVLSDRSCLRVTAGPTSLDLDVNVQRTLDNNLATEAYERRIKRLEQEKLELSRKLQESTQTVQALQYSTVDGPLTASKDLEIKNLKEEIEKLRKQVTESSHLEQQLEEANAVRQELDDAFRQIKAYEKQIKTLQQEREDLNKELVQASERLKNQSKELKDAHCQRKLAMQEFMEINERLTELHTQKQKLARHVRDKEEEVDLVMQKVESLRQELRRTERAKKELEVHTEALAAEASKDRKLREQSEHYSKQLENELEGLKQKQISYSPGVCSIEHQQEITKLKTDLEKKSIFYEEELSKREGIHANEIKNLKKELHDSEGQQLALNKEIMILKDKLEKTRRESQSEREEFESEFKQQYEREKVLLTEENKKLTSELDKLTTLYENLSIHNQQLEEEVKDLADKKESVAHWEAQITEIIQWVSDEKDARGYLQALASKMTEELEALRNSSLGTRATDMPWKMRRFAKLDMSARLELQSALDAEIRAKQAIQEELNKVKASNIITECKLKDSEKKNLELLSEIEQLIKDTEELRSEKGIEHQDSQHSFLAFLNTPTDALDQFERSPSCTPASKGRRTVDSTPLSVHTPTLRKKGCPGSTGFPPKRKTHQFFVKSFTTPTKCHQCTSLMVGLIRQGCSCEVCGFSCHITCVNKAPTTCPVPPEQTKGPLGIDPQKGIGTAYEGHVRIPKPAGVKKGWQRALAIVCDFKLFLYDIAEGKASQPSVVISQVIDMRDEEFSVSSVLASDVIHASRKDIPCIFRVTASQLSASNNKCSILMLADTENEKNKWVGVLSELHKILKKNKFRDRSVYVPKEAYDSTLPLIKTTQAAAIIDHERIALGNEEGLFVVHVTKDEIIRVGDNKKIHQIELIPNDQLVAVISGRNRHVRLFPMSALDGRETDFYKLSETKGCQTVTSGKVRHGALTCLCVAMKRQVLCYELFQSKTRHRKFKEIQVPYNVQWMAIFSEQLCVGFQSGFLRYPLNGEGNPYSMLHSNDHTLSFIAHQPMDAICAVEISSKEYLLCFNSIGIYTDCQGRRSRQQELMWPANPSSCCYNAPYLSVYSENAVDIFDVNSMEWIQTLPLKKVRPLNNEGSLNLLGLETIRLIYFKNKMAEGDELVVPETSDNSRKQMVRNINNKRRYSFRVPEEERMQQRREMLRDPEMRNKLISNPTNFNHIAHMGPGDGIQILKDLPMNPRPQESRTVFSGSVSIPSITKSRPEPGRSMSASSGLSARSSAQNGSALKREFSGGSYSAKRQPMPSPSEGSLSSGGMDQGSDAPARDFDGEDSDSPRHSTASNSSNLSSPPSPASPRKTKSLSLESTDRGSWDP
CYP2C9, sequence (P11712 whole entry): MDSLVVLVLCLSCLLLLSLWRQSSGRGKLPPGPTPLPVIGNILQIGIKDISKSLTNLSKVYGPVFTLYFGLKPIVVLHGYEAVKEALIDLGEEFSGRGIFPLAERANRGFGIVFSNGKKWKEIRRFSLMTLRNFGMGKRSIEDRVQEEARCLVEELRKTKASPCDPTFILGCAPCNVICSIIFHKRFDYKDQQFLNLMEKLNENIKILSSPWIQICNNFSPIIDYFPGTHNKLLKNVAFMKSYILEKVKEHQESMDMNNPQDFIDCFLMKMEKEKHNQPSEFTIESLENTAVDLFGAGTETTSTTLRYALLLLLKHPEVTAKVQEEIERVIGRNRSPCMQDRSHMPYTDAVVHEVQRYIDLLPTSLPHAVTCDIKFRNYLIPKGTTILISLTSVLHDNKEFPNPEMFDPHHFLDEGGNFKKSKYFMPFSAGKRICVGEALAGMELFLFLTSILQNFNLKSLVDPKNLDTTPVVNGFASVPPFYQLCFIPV
CYP3A4, sequence (P08684 whole entry): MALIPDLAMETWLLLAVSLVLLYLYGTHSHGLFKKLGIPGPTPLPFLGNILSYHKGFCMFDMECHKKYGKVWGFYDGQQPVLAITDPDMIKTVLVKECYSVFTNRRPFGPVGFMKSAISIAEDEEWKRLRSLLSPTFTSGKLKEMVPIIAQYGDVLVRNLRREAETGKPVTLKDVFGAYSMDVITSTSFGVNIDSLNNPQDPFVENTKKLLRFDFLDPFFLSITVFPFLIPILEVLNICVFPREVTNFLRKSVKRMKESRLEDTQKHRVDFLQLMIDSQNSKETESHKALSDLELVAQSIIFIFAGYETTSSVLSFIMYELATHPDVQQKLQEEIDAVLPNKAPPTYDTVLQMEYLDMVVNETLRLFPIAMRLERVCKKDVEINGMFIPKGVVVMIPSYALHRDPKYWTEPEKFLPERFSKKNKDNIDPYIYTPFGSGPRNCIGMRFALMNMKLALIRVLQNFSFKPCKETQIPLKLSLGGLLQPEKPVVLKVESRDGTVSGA

O=c1[nH]c([C@@H]2CNC[C@H]2c2ccc(Cl)cc2)nc2ccc(-c3cn[nH]c3)cc12
IC50 [1]: > 1000 nM | IC50 [2]: > 1000 nM | IC50 [3]: 2 nM | IC50 [4]: < 1 nM | half-life [5]: 1.25 h | IC50 [6]: > 1000 nM | IC50 [7]: > 1000 nM | IC50 [8]: 1 nM | inhibition at 10 µM [9]: 75% | inhibition at 10 µM [10]: 30% | inhibition at 10 µM [11]: 34% | IC50 [12]: 23 nM | IC50 [13]: > 1000 nM | inhibition at 10 µM [14]: 65%

CCOc1ccc(C[C@H](N)c2nc3ccc(-c4cn[nH]c4)cc3c(=O)[nH]2)cc1
IC50 [3]: 60 nM | IC50 [4]: 19 nM

CN(C)c1nc([C@@H]2CNC[C@H]2c2ccccc2)nc2ccc(-c3cn[nH]c3)cc12
IC50 [1]: > 1000 nM | IC50 [2]: > 1000 nM | IC50 [3]: 279 nM | IC50 [4]: 2.5 nM | half-life [5]: 1.43 h | IC50 [6]: > 1000 nM | IC50 [7]: > 1000 nM | inhibition at 10 µM [9]: 88% | inhibition at 10 µM [10]: 77% | inhibition at 10 µM [11]: 47% | IC50 [12]: 800 nM | IC50 [13]: > 1000 nM | inhibition at 10 µM [14]: 49%

N[C@H](Cc1ccc(F)c(F)c1)c1nc2ccc(-c3cn[nH]c3)cc2c(=O)[nH]1
IC50 [3]: 12 nM | IC50 [4]: 7 nM

O=c1[nH]c([C@@H]2CNC[C@H]2c2ccc(C(F)(F)F)cc2)nc2ccc(-c3cn[nH]c3)cc12
IC50 [3]: 6 nM | IC50 [4]: 2 nM

Fc1ccc([C@@H]2CNC[C@H]2c2nc(N3CCC3)c3cc(-c4cn[nH]c4)ccc3n2)cc1
IC50 [3]: 443 nM | IC50 [4]: 71 nM

CN(CCCO)c1nc([C@H](N)Cc2cccc(F)c2)nc2ccc(-c3cn[nH]c3)cc12
IC50 [4]: 159 nM

O=c1[nH]c([C@@H]2CN(Cc3ccccc3)C[C@H]2c2ccccc2F)nc2ccc(-c3cn[nH]c3)cc12
IC50 [3]: 233 nM | IC50 [4]: 49 nM

CN(C)c1nc([C@@H](N)Cc2cccc(F)c2)nc2ccc(-c3cn[nH]c3)cc12
IC50 [3]: 259 nM | IC50 [4]: 67 nM

COc1cc(-c2cn[nH]c2)cc2c(=O)[nH]c(C(N)c3ccc(Cl)cc3)nc12 (centres undefined)
IC50 [3]: 14 nM | IC50 [4]: 9 nM

CN(CCO)c1nc([C@H](N)Cc2cccc(F)c2)nc2ccc(-c3cn[nH]c3)cc12
IC50 [3]: 44 nM | IC50 [4]: 27 nM

COc1cc(-c2cn[nH]c2)cc2c(=O)[nH]c(C(N)c3cccc(Cl)c3)nc12 (centres undefined)
IC50 [1]: > 1000 nM | IC50 [2]: > 1000 nM | IC50 [3]: 11 nM | IC50 [4]: 8 nM | half-life [5]: 0.85 h | IC50 [6]: > 1000 nM | IC50 [7]: > 1000 nM | IC50 [8]: 8 nM | inhibition at 10 µM [9]: 63% | inhibition at 10 µM [10]: 80% | inhibition at 10 µM [11]: 79% | IC50 [13]: > 1000 nM | inhibition at 10 µM [14]: 54%

N[C@H](Cc1ccc(Cl)cc1)c1nc2ccc(-c3cn[nH]c3)cc2c(=O)[nH]1
IC50 [3]: 5 nM | IC50 [4]: 4 nM

CN(CCO)c1nc([C@@H](N)Cc2cccc(F)c2)nc2ccc(-c3cn[nH]c3)cc12
IC50 [3]: 284 nM | IC50 [4]: 27 nM

N[C@H](Cc1cccc(C(F)(F)F)c1)c1nc2ccc(-c3cn[nH]c3)cc2c(=O)[nH]1
IC50 [3]: 28 nM | IC50 [4]: 16 nM

O=C(Cc1cccnc1)N[C@H](Cc1ccc(Cl)cc1)c1nc2ccc(-c3cn[nH]c3)cc2c(=O)[nH]1
IC50 [4]: 239 nM

NC(c1ccc(Cl)cc1)c1nc2ccc(-c3cn[nH]c3)cc2c(=O)[nH]1 (centres undefined)
IC50 [3]: 9 nM | IC50 [4]: 10 nM

CN(C)CCN(C)c1nc([C@H](N)Cc2cccc(F)c2)nc2ccc(-c3cn[nH]c3)cc12
IC50 [3]: 1160 nM | IC50 [4]: 627 nM

NCc1ccc(C(=O)NC(c2ccc(Cl)cc2)c2nc3ccc(-c4cn[nH]c4)cc3c(=O)[nH]2)cc1 (centres undefined)
IC50 [1]: > 1000 nM | IC50 [2]: > 1000 nM | IC50 [3]: 96 nM | IC50 [4]: 18 nM | half-life [5]: 7 h | IC50 [6]: > 1000 nM | IC50 [7]: > 1000 nM | IC50 [8]: 22 nM | inhibition at 10 µM [9]: 96% | inhibition at 10 µM [10]: 63% | inhibition at 10 µM [11]: 94% | IC50 [13]: > 1000 nM | inhibition at 10 µM [14]: 90%

COc1ccc(C[C@H](N)c2nc3ccc(-c4cn[nH]c4)cc3c(=O)[nH]2)cc1OC
IC50 [3]: 38 nM | IC50 [4]: 39 nM

COc1ccc(C(N)c2nc3ccc(-c4c[nH]nc4C)cc3c(=O)[nH]2)cc1 (centres undefined)
IC50 [4]: 98 nM
